How the values were obtained:
[1] = target: T1, κ-opioid (KOP) receptor (Homo sapiens, UniProt P41145); experiment: CEREP/Bioprint binding assay panel (human isoforms)
T1 construct: gene OPRK1

[2] = target: T2, orexin-1 receptor (OX1R) (Rattus norvegicus, UniProt P56718); experiment: antagonism of Orexin-A-induced [3H]inositol phosphates accumulation in RBL cells stably expressing rat OX1R; format: cell-based
T2 construct: gene Hcrtr1
T2 sequence (P56718 1-416): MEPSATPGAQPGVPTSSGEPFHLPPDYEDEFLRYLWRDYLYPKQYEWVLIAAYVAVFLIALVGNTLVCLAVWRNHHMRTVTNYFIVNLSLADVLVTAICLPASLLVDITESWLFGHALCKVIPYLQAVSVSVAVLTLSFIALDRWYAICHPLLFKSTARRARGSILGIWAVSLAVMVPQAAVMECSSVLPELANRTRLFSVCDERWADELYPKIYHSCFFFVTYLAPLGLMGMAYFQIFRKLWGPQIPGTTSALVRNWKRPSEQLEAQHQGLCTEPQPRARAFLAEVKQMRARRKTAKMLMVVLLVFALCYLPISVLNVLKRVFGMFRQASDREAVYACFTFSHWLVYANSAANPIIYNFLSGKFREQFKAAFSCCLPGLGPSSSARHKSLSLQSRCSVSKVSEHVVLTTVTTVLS

[3] = target: T3, orexin-2 receptor (OX2R) (Rattus norvegicus, UniProt P56719); experiment: antagonism of Orexin-A-induced [3H]inositol phosphates accumulation in RBL cells stably expressing rat OX2R (Schild analysis); format: cell-based
T3 construct: gene Hcrtr2
T3 sequence (P56719 1-460): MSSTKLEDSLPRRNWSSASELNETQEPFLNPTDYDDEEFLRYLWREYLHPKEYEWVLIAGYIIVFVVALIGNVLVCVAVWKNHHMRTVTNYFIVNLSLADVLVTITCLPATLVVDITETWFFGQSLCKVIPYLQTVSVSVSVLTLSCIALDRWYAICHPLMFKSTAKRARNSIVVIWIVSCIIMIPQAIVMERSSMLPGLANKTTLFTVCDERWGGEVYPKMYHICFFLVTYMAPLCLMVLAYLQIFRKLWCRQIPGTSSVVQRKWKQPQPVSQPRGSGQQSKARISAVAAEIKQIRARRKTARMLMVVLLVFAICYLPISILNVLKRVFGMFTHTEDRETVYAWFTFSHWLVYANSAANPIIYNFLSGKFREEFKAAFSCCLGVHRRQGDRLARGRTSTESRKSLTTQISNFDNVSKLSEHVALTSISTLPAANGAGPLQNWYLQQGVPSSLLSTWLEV

T1 sequence (P41145 whole entry, canonical isoform): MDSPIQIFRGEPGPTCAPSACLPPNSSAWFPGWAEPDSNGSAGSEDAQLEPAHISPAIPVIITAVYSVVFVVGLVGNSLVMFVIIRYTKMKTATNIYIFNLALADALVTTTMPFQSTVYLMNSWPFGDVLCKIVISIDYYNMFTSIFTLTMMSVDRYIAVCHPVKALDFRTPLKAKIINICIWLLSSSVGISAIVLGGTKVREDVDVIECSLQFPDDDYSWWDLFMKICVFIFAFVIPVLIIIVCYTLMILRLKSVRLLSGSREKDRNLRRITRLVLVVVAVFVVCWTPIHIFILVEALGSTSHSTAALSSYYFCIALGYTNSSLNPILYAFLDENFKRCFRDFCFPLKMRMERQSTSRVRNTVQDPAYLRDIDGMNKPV

| Ki [1] [µM] | Kb [2] [µM] | Kb [3] [µM] | SMILES |
| --- | --- | --- | --- |
| 0.316 | 0.00158 | 0.126 | COc1c(F)cccc1C(=O)N1C[C@@H](C)CC[C@H]1CNc1ccc(Br)cn1 [GSK1059865, 5-bromo-N-[(2S,5S)-1-(3-fluoro-2-methoxybenzoyl)-5-methylpiperidin-2-yl]methyl-pyridin-2-amine] |
| – | 1.26 | 0.00316 | CC1(C)OC[C@H](NC(=O)Nc2ccc(Br)cc2Br)[C@H](c2ccccc2)O1 [JNJ10397049] |
